Results on 20 molecules are retold here after patent publication US9840513B2 (AbbVie S.à.r.l., priority 2015, dated 2017).

The target in the assay is T1, F508delCFTR cell surface expression in CFBE41o-F508delCFTR-HRP cells (Homo sapiens, UniProt P13569, DEL508-508).
T1 construct: fused on or other part: Horseradish peroxidase (HRP) reporter inserted in the fourth exofacial (extracellular) loop of CFTR; expression is doxycycline-inducible
The assay can be described thus: Cell Surface Expression-Horse Radish Peroxidase (CSE-HRP) Assay. The class given is cell-based. The settings on record: for EC50: CFBE41o-F508delCFTR-HRP cells, 18-24 hours at 33° C., 8-point curve, highest concentration 20 μM; for Maximum % activity (%): maximum at any tested concentration, normalized to on-plate positive control (3 μM). Summed up: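 CFBE41o- cells with HRP-tagged F508delCFTR, expression induced by 0.5 μg/mL doxycycline for 72 h at 37 °C, then compound for 18-24 h at 33 °C (8-point, 3-fold, top 20 μM). Surface HRP measured by luminol luminescence; % activity normalised to 3 μM positive-control corrector; EC50 from variable-slope sigmoidal fit, three replicate plates.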

T1 sequence (P13569 with tags, fused parts or gaps DEL508-508 limits assumed): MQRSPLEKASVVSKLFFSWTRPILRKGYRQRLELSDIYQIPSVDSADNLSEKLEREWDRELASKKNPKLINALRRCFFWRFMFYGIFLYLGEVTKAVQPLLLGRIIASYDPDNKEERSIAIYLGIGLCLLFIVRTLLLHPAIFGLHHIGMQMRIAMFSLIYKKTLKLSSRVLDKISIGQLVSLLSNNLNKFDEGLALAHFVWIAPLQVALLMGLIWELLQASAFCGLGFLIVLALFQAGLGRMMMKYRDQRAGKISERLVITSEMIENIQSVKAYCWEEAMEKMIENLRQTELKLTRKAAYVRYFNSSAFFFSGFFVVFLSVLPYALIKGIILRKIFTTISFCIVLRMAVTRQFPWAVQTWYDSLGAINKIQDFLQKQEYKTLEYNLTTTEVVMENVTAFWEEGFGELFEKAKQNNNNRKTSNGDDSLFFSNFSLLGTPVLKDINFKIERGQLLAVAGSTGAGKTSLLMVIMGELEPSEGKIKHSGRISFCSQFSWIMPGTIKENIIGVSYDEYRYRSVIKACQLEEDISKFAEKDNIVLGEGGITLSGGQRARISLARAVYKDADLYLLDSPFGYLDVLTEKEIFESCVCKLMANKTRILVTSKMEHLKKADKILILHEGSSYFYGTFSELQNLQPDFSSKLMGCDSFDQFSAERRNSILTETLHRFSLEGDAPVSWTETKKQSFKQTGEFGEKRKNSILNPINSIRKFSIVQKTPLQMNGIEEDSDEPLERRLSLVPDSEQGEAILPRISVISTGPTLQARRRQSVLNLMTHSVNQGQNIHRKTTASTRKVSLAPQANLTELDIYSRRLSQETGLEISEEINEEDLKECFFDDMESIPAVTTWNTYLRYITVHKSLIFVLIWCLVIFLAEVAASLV
T1 sequence (P13569 919-1480 limits assumed, stated change not applied): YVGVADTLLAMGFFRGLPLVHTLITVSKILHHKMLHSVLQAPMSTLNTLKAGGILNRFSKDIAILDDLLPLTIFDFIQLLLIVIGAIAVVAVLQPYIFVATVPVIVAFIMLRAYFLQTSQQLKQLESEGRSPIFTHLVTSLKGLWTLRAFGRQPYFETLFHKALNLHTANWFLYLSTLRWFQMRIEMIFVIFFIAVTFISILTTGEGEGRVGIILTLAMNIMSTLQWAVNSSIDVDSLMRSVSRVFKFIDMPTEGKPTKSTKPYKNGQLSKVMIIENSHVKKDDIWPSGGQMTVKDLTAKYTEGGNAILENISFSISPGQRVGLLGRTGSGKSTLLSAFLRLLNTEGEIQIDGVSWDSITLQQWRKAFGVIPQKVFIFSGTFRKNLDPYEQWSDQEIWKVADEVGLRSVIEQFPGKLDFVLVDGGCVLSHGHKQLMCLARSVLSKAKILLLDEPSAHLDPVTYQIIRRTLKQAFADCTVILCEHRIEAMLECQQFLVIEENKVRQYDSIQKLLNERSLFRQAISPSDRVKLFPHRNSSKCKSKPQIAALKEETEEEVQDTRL

As for `CCOC(=O)[C@H]1CC[C@@H]([C@@H]2C[C@H](NC(=O)[C@@]3(C)COc4cc5c(cc43)OC(F)(F)O5)c3ccc(OC(F)(F)F)cc3O2)CC1` [Example 158, ethyl cis-4-[(2S,4S)-4-{[(7R)-2,2-difluoro-7-methyl-6,7-dihydro-2H-furo[2,3-f][1,3]benzodioxole-7-carbonyl]amino}-7-(trifluoromethoxy)-3,4-dihydro-2H-1-benzopyran-2-yl]cyclohexane-1-carboxylate], the EC50 stood at 3670 nM and the “Maximum % activity (%)” value turned out to be 111%.

With `C[C@]1(C(=O)Nc2cccc(N3CCC(c4ccc(F)cc4)C3)n2)COc2cc3c(cc21)OC(F)(F)O3` (stereo partly drawn) [Example 114, (7R)-2,2-difluoro-N-{6-[3-(4-fluorophenyl)pyrrolidin-1-yl]pyridin-2-yl}-7-methyl-6,7-dihydro-2H-furo[2,3-f][1,3]benzodioxole-7-carboxamide], the EC50 was found to be 750 nM and the “Maximum % activity (%)” value is reported as 98%.

`C[C@]1(C(=O)Nc2cnc(N3CCC[C@H]3C(=O)O)cn2)COc2cc3c(cc21)OC(F)(F)O3` [Example 102, 1-(5-{[(7R)-2,2-difluoro-7-methyl-6,7-dihydro-2H-furo[2,3-f][1,3]benzodioxole-7-carbonyl]amino}pyrazin-2-yl)proline]: the midpoint of the response, the EC50, lay at 8290 nM and the “Maximum % activity (%)” value amounted to 61%.

As to `COc1ccc2c(c1)O[C@@H](c1ccc(C(=O)N(CCO)CCO)cn1)C[C@H]2NC(=O)[C@@]1(C)COc2cc3c(cc21)OC(F)(F)O3` [Example 236, 6-[(2R,4R)-4-{[(7R)-2,2-difluoro-7-methyl-6,7-dihydro-2H-furo[2,3-f][1,3]benzodioxole-7-carbonyl]amino}-7-methoxy-3,4-dihydro-2H-1-benzopyran-2-yl]-N,N-bis(2-hydroxyethyl)pyridine-3-carboxamide], the midpoint of the response, the EC50, lay at 70 nM and the “Maximum % activity (%)” value is 131%.

Take `C[C@]1(C(=O)Nc2cc3cc(C4(CO)CCOCC4)n(C[C@@H](O)CO)c3cc2F)COc2cc3c(cc21)OC(F)(F)O3` [Example 170, (7R)—N-{1-[(2R)-2,3-dihydroxypropyl]-6-fluoro-2-[4-(hydroxymethyl)oxan-4-yl]-1H-indol-5-yl}-2,2-difluoro-7-methyl-6,7-dihydro-2H-furo[2,3-f][1,3]benzodioxole-7-carboxamide]: the EC50 was found to be 1260 nM and the “Maximum % activity (%)” value stood at 65%.

As for `CC(C)(CO)[C@H]1Cc2cc(NC(=O)[C@@]3(C)COc4cc5c(cc43)OC(F)(F)O5)c(F)cc2N1C[C@@H](O)CO` (single isomer, unassigned) [Example 140], the 50% effective concentration (EC50) was 1300 nM and the “Maximum % activity (%)” value came out at 49%.

Take `COc1ccc2c(c1)O[C@@H](c1ccc(C(=O)NC(C)CO)cn1)C[C@H]2NC(=O)[C@@]1(C)COc2cc3c(cc21)OC(F)(F)O3` (stereo partly drawn) [Example 242, 6-[(2R,4R)-4-{[(7R)-2,2-difluoro-7-methyl-6,7-dihydro-2H-furo[2,3-f][1,3]benzodioxole-7-carbonyl]amino}-7-methoxy-3,4-dihydro-2H-1-benzopyran-2-yl]-N-(1-hydroxypropan-2-yl)pyridine-3-carboxamide]: the EC50 turned out to be 40 nM and the “Maximum % activity (%)” value came out at 116%.

With `COc1ccc2c(c1)O[C@@H](c1ccc(C(=O)N3CCC(O)CC3)cn1)C[C@H]2NC(=O)[C@@]1(C)COc2cc3c(cc21)OC(F)(F)O3` [Example 212, (7R)-2,2-difluoro-N-{(2R,4R)-2-[5-(4-hydroxypiperidine-1-carbonyl)pyridin-2-yl]-7-methoxy-3,4-dihydro-2H-1-benzopyran-4-yl}-7-methyl-6,7-dihydro-2H-furo[2,3-f][1,3]benzodioxole-7-carboxamide], the EC50 turned out to be 30 nM and the “Maximum % activity (%)” value came out at 119%.

Consider `COc1ccc2c(c1)O[C@@H]([C@H]1CC[C@H](C(=O)O)CC1)C[C@H]2NC(=O)[C@@]1(C)COc2c1cc1c(c2I)OC(F)(F)O1` [Example 291, trans-4-[(2R,4R)-4-{[(7R)-2,2-difluoro-4-iodo-7-methyl-6,7-dihydro-2H-furo[2,3-f][1,3]benzodioxole-7-carbonyl]amino}-7-methoxy-3,4-dihydro-2H-1-benzopyran-2-yl]cyclohexane-1-carboxylic acid], for which the EC50 was found to be 670 nM and the “Maximum % activity (%)” value stood at 117%.

As to `COc1ccc2c(c1)O[C@@H](c1ccc(C(=O)NCC(C)O)cn1)C[C@H]2NC(=O)[C@@]1(C)COc2cc3c(cc21)OC(F)(F)O3` (stereo partly drawn) [Example 241, 6-[(2R,4R)-4-{[(7R)-2,2-difluoro-7-methyl-6,7-dihydro-2H-furo[2,3-f][1,3]benzodioxole-7-carbonyl]amino}-7-methoxy-3,4-dihydro-2H-1-benzopyran-2-yl]-N-(2-hydroxypropyl)pyridine-3-carboxamide], the EC50 was found to be 40 nM and the “Maximum % activity (%)” value is recorded as 110%.

Turning to `Cc1ccc(NC(=O)[C@@]2(C)COc3cc4c(cc32)OC(F)(F)O4)nc1-c1cccc(C#N)c1` [Example 78, (7R)—N-[6-(3-cyanophenyl)-5-methylpyridin-2-yl]-2,2-difluoro-7-methyl-6,7-dihydro-2H-furo[2,3-f][1,3]benzodioxole-7-carboxamide], a half-maximal response (EC50) required 570 nM and the “Maximum % activity (%)” value was 95%.

Turning to `COc1ccc2c(c1)O[C@@H](c1ccc(C(C)(C)O)cn1)C[C@H]2NC(=O)[C@@]1(C)COc2cc3c(cc21)OC(F)(F)O3` [Example 181, (7R)-2,2-difluoro-N-{(2R,4R)-2-[5-(2-hydroxypropan-2-yl)pyridin-2-yl]-7-methoxy-3,4-dihydro-2H-1-benzopyran-4-yl}-7-methyl-6,7-dihydro-2H-furo[2,3-f][1,3]benzodioxole-7-carboxamide], the EC50 was determined as 30 nM and the “Maximum % activity (%)” value was 129%.

As to `CC1(C)OC[C@H]([C@H](O)Cn2nc(-c3ccccc3)cc(NC(=O)[C@@]3(C)COc4cc5c(cc43)OC(F)(F)O5)c2=O)O1` [Example 106, (7R)—N-(2-{(2R)-2-[(4R)-2,2-dimethyl-1,3-dioxolan-4-yl]-2-hydroxyethyl}-3-oxo-6-phenyl-2,3-dihydropyridazin-4-yl)-2,2-difluoro-7-methyl-6,7-dihydro-2H-furo[2,3-f][1,3]benzodioxole-7-carboxamide], the EC50 was found to be 14100 nM and the “Maximum % activity (%)” value is recorded as 18%.

As to `Cc1ccc(NC(=O)C2(C)COc3cc4c(cc32)OC(F)(F)O4)nc1-c1cccc(C(N)=O)c1` (stereo not shown) [Example 74, N-[6-(3-carbamoylphenyl)-5-methylpyridin-2-yl]-2,2-difluoro-7-methyl-6,7-dihydro-2H-furo[2,3-f][1,3]benzodioxole-7-carboxamide], the EC50 was 700 nM and the “Maximum % activity (%)” value stood at 105%.

`C[C@]1(C(=O)Nc2cccc(N3CC4CCCC4(C(=O)O)C3)n2)COc2cc3c(cc21)OC(F)(F)O3` (stereo partly drawn) [Example 117, 2-(6-{[(7R)-2,2-difluoro-7-methyl-6,7-dihydro-2H-furo[2,3-f][1,3]benzodioxole-7-carbonyl]amino}pyridin-2-yl)hexahydrocyclopenta[c]pyrrole-3a(1H)-carboxylic acid]: it took 1390 nM to reach a half-maximal effect (EC50) and the “Maximum % activity (%)” value is recorded as 147%.

In the case of `CCOC(=O)[C@H]1CC[C@H]([C@@H]2C[C@H](NC(=O)[C@@]3(C)COc4cc5c(cc43)OC(F)(F)O5)c3ccc(OC)cc3O2)CC1` [Example 152, ethyl trans-4-[(2S,4S)-4-{[(7R)-2,2-difluoro-7-methyl-6,7-dihydro-2H-furo[2,3-f][1,3]benzodioxole-7-carbonyl]amino}-7-methoxy-3,4-dihydro-2H-1-benzopyran-2-yl]cyclohexane-1-carboxylate], the EC50 was determined as 806 nM and the “Maximum % activity (%)” value was 102%.

As for `COc1ccc2c(c1)O[C@H](COCc1ccccc1)C[C@@H]2NC(=O)[C@@]1(C)COc2cc3c(cc21)OC(F)(F)O3` [Example 278, (7R)—N-{(2S,4S)-2-[(benzyloxy)methyl]-7-methoxy-3,4-dihydro-2H-1-benzopyran-4-yl}-2,2-difluoro-7-methyl-6,7-dihydro-2H-furo[2,3-f][1,3]benzodioxole-7-carboxamide], the EC50 is 1540 nM and the “Maximum % activity (%)” value was determined as 86%.

With `COc1ccc2c(c1)O[C@@H](c1ccc(Cl)nn1)C[C@H]2NC(=O)[C@@]1(C)COc2cc3c(cc21)OC(F)(F)O3` [Example 195, (7R)—N-[(2R,4R)-2-(6-chloropyridazin-3-yl)-7-methoxy-3,4-dihydro-2H-1-benzopyran-4-yl]-2,2-difluoro-7-methyl-6,7-dihydro-2H-furo[2,3-f][1,3]benzodioxole-7-carboxamide], the response was half-maximal at 340 nM (EC50) and the “Maximum % activity (%)” value is 101%.

Turning to `CC(C)(CO)NC(=O)[C@H]1CC[C@H]([C@H]2C[C@@H](NC(=O)[C@@]3(C)COc4cc5c(cc43)OC(F)(F)O5)c3ccc(OC(F)(F)F)cc3O2)CC1` [Example 268, (7R)-2,2-difluoro-N-[(2R,4R)-2-{trans-4-[(1-hydroxy-2-methylpropan-2-yl)carbamoyl]cyclohexyl}-7-(trifluoromethoxy)-3,4-dihydro-2H-1-benzopyran-4-yl]-7-methyl-6,7-dihydro-2H-furo[2,3-f][1,3]benzodioxole-7-carboxamide], the midpoint of the response, the EC50, lay at 120 nM and the “Maximum % activity (%)” value turned out to be 186%.

On to `C[C@]1(C(=O)Nc2cccc(F)n2)COc2cc3c(cc21)OC(F)(F)O3` [Example 85, (7R)-2,2-difluoro-N-(6-fluoropyridin-2-yl)-7-methyl-6,7-dihydro-2H-furo[2,3-f][1,3]benzodioxole-7-carboxamide], for which a half-maximal response (EC50) required 6690 nM and the “Maximum % activity (%)” value turned out to be 90%.

As a reminder, the EC50 is the concentration at which the effect is half-maximal. Lower therefore signals greater potency.
